Experiments:
[1] = tested on: synapses between CA3 and CA1 pyramidal cells; experiment: Field EPSP recordings in hippocampal slices; type: cell-based, rat
Method: The maximal initial slope of fEPSPs was calculated using a LabVIEW-based program (National Instruments). The peak amplitude of each EPSC was measured by comparing a 10 msec time period immediately prior to the stimulus with the peak of the EPSC using this program as well. Occasionally polysynaptic responses were evoked, and in these cases, only the initial monosynaptic event was measured. To positively identify LTD, EPSCs measured every 10 seconds were averaged in 1 minute intervals. EPSC amplitude values were normalized to control pre-HFS EPSC amplitude values (baseline period of at least 5 minutes prior to HFS) and subjected to analysis of variance (ANOVA) repeated measures analysis with a post-hoc Dunnett's test (GraphPad Prism, Version 4). […] EPSC amplitude values 15 to 20 minutes post-HFS were compared between control LTD experiments and those carried out either in transgenic TRPV1^−/− mice, or in the presence of drug using a t-test (unpaired, two-tailed, with Welch's correction if the variances between the groups were unequal). To calculate the effects of capsaicin, 12-(S)-HPETE or WIN 55,212-2 application on basal excitatory glutamatergic transmission, normalized EPSC amplitudes or fEPSP slopes were averaged in the final 5 minutes of drug application and compared with EPSCs/EPSPs 5 minutes prior to drug application. In addition, to measure capsaicin's effects on holding current, the peak change in holding current was measured during bath application of 3 μM capsaicin. The n-values reported refer to the number of slices. All combined data are expressed as mean±the standard error of the mean (s.e.m.).

[2] = tested on: excitatory synapses on interneurons; experiment: Drug-induced depression of EPSC amplitudes in slices from TRPV1-/- and C57BL/6 wild-type mice; type: cell-based, mouse; conditions: capsaicin 1 μM
Text: The basic methods have been detailed previously (McMahon and Kauer, 1997). Sprague-Dawley rats (15-22 days old) were used in the majority of experiments. In addition, we used TRPV1^−/− mice (Caterina et al., 2000) and wild-type C57BL/6 mice aged between 15 and 21 days (Jackson Laboratory). The TRPV1^−/− mice we used have been backcrossed at least 10 times onto a C57BL/6 background and were obtained from homozygous breeding pairs. Control mice were therefore not littermates but were age-matched, wild-type C57BL/6 animals received from the same supplier in the same shipment. All animal protocols were approved by the Brown University Institutional Animal Care and Use Committee. For mouse experiments, only one brain slice per mouse was used for each experiment, so that reported ‘n’ numbers represent the number of animals. Animals were anaesthetized using halothane or isoflurane and quickly decapitated. […]
Slices were continuously perfused with ACSF warmed to 28-32° C. at a flow rate of 1-2 ml/min. […] EPSCs were stimulated at 0.1 Hz (100 μsec) using a bipolar stainless steel stimulating electrode placed in stratum radiatum at least 200 μm from the recorded cell. […] In early experiments, we measured rectification ratios of EPSCs evoked at +40 mV/−60 mV in the presence of 50 μM D-AP5, measured at the time of peak inward synaptic current seen at −70 mV (Lei and McBain, 2004).
The maximal initial slope of fEPSPs was calculated using a LabVIEW-based program (National Instruments). The peak amplitude of each EPSC was measured by comparing a 10 msec time period immediately prior to the stimulus with the peak of the EPSC using this program as well. Occasionally polysynaptic responses were evoked, and in these cases, only the initial monosynaptic event was measured. To positively identify LTD, EPSCs measured every 10 seconds were averaged in 1 minute intervals. […]

## COc1cc(CNC(=O)CCCCC=CC(C)C)ccc1O [capsaicin, 8-methyl-N-vanillyl-6-nonenamide]
[1]; 1 μM capsaicin, P=0.58, n=5
  fEPSP slopes after 10-15 minutes in capsaicin: 102.8±5.4 % of pre-drug control values
[1]; 10 μM capsaicin, often with depression of presynaptic fiber volley
  effect on synaptic transmission at the CA3-CA1 synapse: depressed synaptic transmission
[2]; C57BL/6 wild-type mice, n=6
  EPSC amplitudes after 10-15 minutes in capsaicin in C57BL/6 wild-type mice: 50.5±12.1 % of pre-drug control values
[2]; TRPV1−/− mice, n=8
  EPSC amplitudes after 10-15 minutes in capsaicin in TRPV1−/− mice: 100.7±6.6 % of pre-drug control values

— patent publication US20110166196A1, “TREATMENT AND PROPHYLAXIS OF EPILEPSY AND FEBRILE SEIZURES” (priority 2008, published 2011)
